Results reported in patent publication US7666994B2, “Cloning and expression of gonadotropin-releasing hormone (GnRH) receptors” (University of New Hampshire, priority 2004, dated 2010).
Ends that are not written are not given here.

Experiments:
lamprey GnRH receptor [1] = assay: Inositol phosphate (IP) assay in COS7 cells transiently transfected with the lamprey GnRH receptor; format: cell-based, sea lamprey, Petromyzon marinus; details: for IP response on stimulation of transiently transfected COS7 cells: in words; for LogEC50, IP accumulation: mean±SEM, n=3, COS7 cells transiently transfected with lamprey GnRH receptor, 10^-6M to 10-11 M, 1 hour at 37° C.; for IP accumulation in cells transfected with blank pcDNA3.1 vector: negative control cells without receptor, data not shown
Protocol: (§1) The coding region of the lamprey GnRH-R was inserted into the pcDNA3.1 HisTOPO mammalian expression vector (Carlsbad, Calif.) (INVITROGEN, Carlsbad, Calif.). COS7 cells were cultured in 10% fetal bovine serum (FBS) in Dulbeccos Modified Eagles Medium (DMEM) (INVITROGEN), and were maintained at 37° C. in 5% CO 2. The day before transfection, 5×10^5 cells were seeded in 60 mm culture plates. Transfection was performed using 5 μg of vector and 15 μL of Lipofectamine (INVITROGEN) in 2.4 mL total volume in Opti-MEM-I (Invitrogen) and an incubation time of 5 hours at 37° C. in 5% CO 2, after which, 2.5 mL of 20% FBS in DMEM was added and cultures were grown overnight.
(§2) Twenty-four hours after transfection (day 2), cells were trypsinized and 96-well plates were seeded with 5×10^4 cells/well, and cultures were grown overnight. Day 3, cells were stimulated with either control (ID buffer −1.0 mM 3-isobutyl-1-methylxanthine in DMEM) or varying concentrations (10^-10M to 10^-4M) of either lamprey GnRH-I or lamprey GnRH-III (in ID buffer). cAMP assays were performed using the BIOTRAK Enzymeimmunoassay system (AMERSHAM), per the manufacturers instructions. Treatments were performed in triplicate in three independent experiments, while cells transfected with blank vector were used as negative controls. Analyses were performed using GRAPHPAD (Prism, San Diego, Calif.). Inositol Phosphate Assay The inositol phosphate (IP) stimulation and extraction protocol used was adapted from previous studies. Briefly, 24 hours after transfection, cells were trypsinized, and seeded in 12-well plates at approximately 1.5×10^5 cells/well. At hour 72 cells were washed in PBS and incubated in 1 mL of 2% dialyzed fetal bovine serum and 2 μCi/mL myo […] inositol (AMERSHAM) in medium 199 (INVITROGEN). At hour 96 cells were washed 2 times with IP buffer (1×HBSS, 20 mM HEPES, 20 mM LiCL), and were pre-incubated in IP buffer for 15 minutes at 37° C., followed by stimulation with concentrations of lamprey GnRH-I or lamprey GnRH III, in IP buffer, ranging from 10^-6M to 10-11 M, for 1 hour at 37° C. with gentle shaking. The reactions were stopped with the addition of 0.2 mL of pre-chilled 20% perchloric acid, and the plates were placed on ice for 30 minutes. The wells were scraped and the extracts were transferred to sterile 1.5 mL tubes and neutralized with 5M KOH, followed by a 1 hour incubation at 4° C. Tubes were centrifuged at 5,000 rpm at 4° C. for 15 minutes, and 1.2 mL of supernatant was transferred to a new sterile 1.5 mL tube. IPs (IP, IP2 and IP3) were isolated by ion exchange chromatography using AGlX8-200 resin (Bio-Rad) in formate form. IPs were eluted with 1 M ammonium formate/0.1 M formic acid, samples were counted by liquid scintillation and data were analyzed using Prism (GRAPHPAD). Treatments were performed in triplicate in three independent experiments, and cells transfected with blank vector and non-transfected cells were used as negative controls.

lamprey GnRH receptor [2] = assay: cAMP assay in COS7 cells transiently transfected with the lamprey GnRH receptor; format: cell-based, sea lamprey, Petromyzon marinus; details: for cAMP response on stimulation of transiently transfected COS7 cells: in words; for LogEC50, cAMP accumulation: mean±SEM, n=3, COS7 cells transiently transfected with lamprey GnRH receptor, 10^-10M to 10^-4M; for cAMP accumulation in cells transfected with blank pcDNA3.1 vector: negative control cells without receptor, data not shown
Protocol: as §1, §2

[3] = tested on: incubated hemipituitaries of male rats; details: cited from earlier work
[4] = tested on: lamprey GnRH receptor transcript; assay: Transcriptional regulation of the GnRH receptor transcript by lamprey GnRH-III (RT-PCR, densitometry normalized to β-actin); format: in vivo, adult male lamprey
Protocol: Forty adult male lamprey's were injected intraperitoneally, twenty (20) with lamprey GnRH-III (200 μL of 0.45 μg/μL lamprey GnRH-III in 0.6% saline) and twenty (20) with control (200 μL of 0.6% saline). Ten (10) fish from each treatment group were sacrificed 24 hours after injection, and brains, pituitaries, kidneys, and testes were dissected and frozen in liquid nitrogen. Forty-eight hours after the first injection, the remaining animals were injected a second time with the same treatment they originally received. Twenty-four hours after the second injection, all remaining animals were sacrificed and tissues dissected and snap frozen. Total RNA was isolated from all tissues using Tri-Reagent (Molecular Research Center, Inc.), treated with RQ1 DNase (PROMEGA), and used as template for RT-PCR with the AccessQuick RT-PCR system (PROMEGA) using the same conditions as above, except 50 ng of template was used per reaction. Reactions were electrophoresed and visualized in 2% agarose gels. Parallel reactions were performed using primers to β-actin as a positive control. Receptor bands were normalized to β-actin and densitometry was performed using a Molecular Imager FX (BioRad, Hercules, Calif.) to determine effects of lamprey […] injection.

[5] = relative to lamprey GnRH-I, one statement for both signaling systems
[6] = after both one and two injections, densitometry normalized to β-actin, N=10

Sequence of lamprey GnRH receptor (as listed by the source): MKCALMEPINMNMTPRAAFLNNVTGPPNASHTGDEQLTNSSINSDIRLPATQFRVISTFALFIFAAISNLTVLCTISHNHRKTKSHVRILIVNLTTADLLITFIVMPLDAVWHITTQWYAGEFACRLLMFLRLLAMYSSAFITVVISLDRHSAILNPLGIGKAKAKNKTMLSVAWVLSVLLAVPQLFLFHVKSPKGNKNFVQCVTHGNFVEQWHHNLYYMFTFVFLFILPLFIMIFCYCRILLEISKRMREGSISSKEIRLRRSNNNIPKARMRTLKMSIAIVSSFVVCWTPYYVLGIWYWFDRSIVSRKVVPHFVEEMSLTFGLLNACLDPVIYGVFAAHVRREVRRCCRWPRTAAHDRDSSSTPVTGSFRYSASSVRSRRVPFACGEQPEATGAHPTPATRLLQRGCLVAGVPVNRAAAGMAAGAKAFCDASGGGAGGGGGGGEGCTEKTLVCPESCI

Row | Substance | IP response on stimulation of transiently transfected COS7 cells (lamprey GnRH receptor [1]) | LogEC50, IP accumulation (lamprey GnRH receptor [1]) | IP accumulation in cells transfected with blank pcDNA3.1 vector (lamprey GnRH receptor [1]) | cAMP response on stimulation of transiently transfected COS7 cells (lamprey GnRH receptor [2]) | LogEC50, cAMP accumulation (lamprey GnRH receptor [2]) | cAMP accumulation in cells transfected with blank pcDNA3.1 vector (lamprey GnRH receptor [2]) | FSH-releasing action [3] | LH-releasing action [3] | logEC50 fold lower than that of lamprey GnRH-I, IP system (lamprey GnRH receptor [1]; [5]) | logEC50 fold lower than that of lamprey GnRH-I, cAMP system (lamprey GnRH receptor [2]; [5]) | receptor transcript regulation in pituitary compared to control [4, 6] | receptor transcript regulation in testes compared to control [4, 6] | receptor transcript bands in pituitary versus control ([4]; after one injection, intraperitoneal, 24 hours after injection) | GnRH receptor transcript level in testes versus control ([4]; after one injection, intraperitoneal, 24 hours after injection, control testes high levels) | receptor transcript expression in brain ([4]; after one or two injections) | effects on receptor transcript in pituitary and testes after two injections, relative to one injection ([4]; two injections 48 hours apart, 24 hours after second injection)
1 | lamprey GnRH-I: one of two hypothalamic GnRH isoforms (decapeptide) identified in the brain of the lamprey (QHYSLEWKPG; ends and bridges not checked) | dose dependant responses | −8.10±0.150 | no response | dose dependant responses | −6.57±0.150 | no response | little activity | little activity |  |  |  |  |  |  |  | 
2 | lamprey GnRH-III: hypothalamic lamprey GnRH isoform (decapeptide), Tyr instead of Trp in the third position | dose dependant responses | −9.37±0.243 | no response | dose dependant responses | −8.29±0.090 | no response | potent, dose-related |  | 40-50 fold | 40-50 fold | up-regulated | down-regulated | twice as bright as control | barely detectable levels | not induced | considerably lesser degree
